IC50 data for six compounds are collected here from patent US4618677A, “Substituted phenylalkyl-(piperazinyl or homopiperazinyl)alkyl-thiols and -thiocarbamates useful for the treatment of immunological, inflammatory, and allergic disorders” (Boehringer Ingelheim Limited, priority 1984, dated 1986).

“And” between values parts separate entries of the source, which are not always exact repeats. Equal values may be shown once. Where a name gives a salt, the structure may show the parent alone. Read-outs that look alike come from different tables or passages of the source.

As a reminder, the IC50 is the point on the concentration scale where inhibition reaches its midpoint.

For assay [1], the system named is rat peritoneal mast cells. Briefly: Inhibition of histamine release from rat peritoneal mast cells, Procedure B. The class given is cell-based. Particulars: Mast cell, 1 h, read-out: In Vitro Inhibition of Histamine Release IC50 (μM) Procedure B.
Procedure: B. Procedure for Determining Inhibition of Histamine Release from Rat Peritoneal Mast Cells
Harvest of Peritoneal Mast Cells: After the rats are sacrificed with ether, 20 ml of Minimum Essential Medium (MEM) containing 20 units/ml heparin is injected into the peritoneum. The abdomen is massaged for one minute and the lavage fluid collected. The peritoneal cells are centrifuged at 1800 rpm for 8 minutes in cold. After two washes with Tris A buffer, the cells are resuspended in Tris ACM buffer at 2-4×10^6 cells/ml.
Reaction mixture: The reaction is carried out in 12×75 mm plastic tubes at a total volume of 1.25 ml. The reaction mixture includes 0.5 ml (10-1000 μg) sheep anti-rat IgE or ovalbumin, 0.2 ml of the test compound in water at concentrations ranging from 10-1000 μM, 0.5 ml phosphatidylserine solution (20-60 μg to each tube), and 0.5 ml of cell suspension.
The concentration which causes a 50% inhibition (IC50) of histamine release is computed as in Part A.
Assay [2] deals with human leukocytes (basophils). The experiment in a line: Inhibition of IgE-mediated histamine release from human leukocytes (basophils), Procedure A. The settings on record: Leukocyte, 1 h, read-out: In Vitro Inhibition of Histamine Release IC50 (μM) Procedure A. The class given is cell-based.
Procedure: A. Procedure for Determining Inhibition of Histamine Release from Human Leukocytes (Basophils)
Separation of Leukocytes: A modification of the method of L. Lichtenstein and A. Osler, J. Exp. Med. 120, 507 (1964) is used. Heparinized human blood (80-100 ml) is mixed with 20 ml of saline (0.2%) containing 0.6 gm of dextrose and 1.2 gm of dextran in propylene centrifuge tubes. The mixture is kept at ambient temperature for 60-90 minutes to allow the separation of erythrocytes from the platelet-leukocyte-rich supernate. The supernate is removed and centrifuged for 8 minutes at 110 ×g in cold. The leukocyte pellet is washed twice with Tris buffer and finally suspended in 150-180 ml Tris-ACM buffer at 1-2 ×10^6 cells/ml.
Reaction Mixture: The reaction is carried out in 12×75 mm plastic tubes at a total volume of 1.23 ml. The reaction medium includes 0.05 ml rabbit anti-human IgE (the antigen), 0.2 ml of the test compound in water at concentrations ranging from 10-100 μM, and 1.0 ml of the leukocyte suspension. The reaction mixture is incubated in a 37° C. shaking water bath for 60 minutes. Upon completion of the reaction, the tubes are centrifuged and the supernatants collected. The protein is removed from the supernatants by precipitation with 0.2 ml of 8% perchloric acid.
Histamine Assay: Histamine release is measured by the automated fluorometric method of W. Siraganian and W. Hook in Chapter 102 of the Manual of Clinical Immunology, 2nd Edition, edited by R. Rose and H. Friedman, published by the American Society for Microbiology, Washington, D.C., 1980. Percent inhibition is calculated as follows: [formula]
The concentration which causes a 50 percent inhibition (IC50) of histamine release is interpolated from a plot of percent inhibition versus logarithm of drug concentration.
The test system of the next assay is guinea pig basophils. Briefly: Inhibition of histamine release from guinea pig basophils, Procedure C. Particulars: Cavia porcellus, 1 h, read-out: In Vitro Inhibition of Histamine Release IC50 (μM) Procedure C. The class given is cell-based. Here is the method:
C. Procedure for Determining Inhibition of Histamine Release from Guinea Pig Basophils
1. In Vivo Sensitization: Male Hartley guinea pigs (200-300 gm) are immunized on day 0 with two 0.05 ml intradermal injections of 200 μg ovalbumin. Sensitized basophils are available between days 13-25 post-sensitization. This mode of sensitization favors IgE response.
2. Separation of Leukocytes: The method of Lett-Brown et al., Int. Arch. Allergy, Appl. Immun. 64, 241 (1981) is used. Animals are anesthetized with ether and are bled via cardiac puncture, with plastic syringes containing sufficient EDTA to provide a final concentration of 10 mM.
One part of 3% gelatin in saline at 37° C. is mixed with 2 parts of blood in a 16×150 mm tube. The cells are allowed to sediment at a 30° angle for 45 minutes in a 37° C. water bath. The leukocyte-rich plasma is collected and centrifuged at 150×g for 30 minutes at room temperature. The pelleted cells are washed in Hepes-buffered saline (HG) containing 4 mM EDTA and resuspended in Hepes-buffered saline containing […] and Ca^++ (HGCM) at 4-5×10^6 cells/ml.
3. Reaction Mixture: The reaction is carried out in 12×75 mm plastic tubes and a total volume of 1.2 ml which includes 0.5 ml of antigen, 0.2 ml of drug solution at concentrations ranging from 10-1000 μM and 0.5 ml of prewashed cell suspension. The reaction mixture is incubated in a 37° C. shaking water bath for 60 minutes. Upon completion of the reaction, the tubes are centrifuged and the supernatants collected. The protein is removed from the supernatants by precipitation with 0.2 ml of 8% perchloric acid.
4. Histamine Assay: Histamine release is measured by the automated fluorometric method of Siraganian, supra. The concentration which causes a 50 percent inhibition of histamine release is computed as in Part A.

The next assay deals with T1, histamine (H1) receptor (Cavia porcellus, UniProt P31389).
T1 construct: contraction of isolated guinea pig ileum; from tissue; host or cells: isolated guinea pig ileum
Briefly: Antagonism of histamine-induced contraction of isolated guinea pig ileum. The class given is tissue-based. The settings on record: histamine final concentration 0.2 μg/ml, 50% reduction of contractile response, read-out: Inhibition IC50 (μM) of histamine-induced contraction. The text has this: Certain compounds of formula I inhibit in vitro the histamine-induced contraction of isolated guinea pig ileum and are useful in warm-blooded animals for antagonizing the action of histamine at the histamine (H1) receptor. Accordingly, these compounds can be employed in a conventional manner as antihistamine agents for the treatment of allergic disorders, for example allergic rhinitis, vasomotor rhinitis, allergic conjunctivitis, hay fever, urticaria, and food allergies.
The antagonism of the effects of histamine on the contraction of isolated guinea pig ileum by the compounds of formula I can be determined by the procedure of G. Possanza, A. Bauen, and P. Stewart, Int. Arch. Allergy Appl. Immunol., 49, 289 (1975). The degree of inhibition is determined as the difference between the contraction caused by histamine (final concentration 0.2 μg/ml) alone and that seen in the presence of both histamine and the test compound. The inhibitory activity of the test compound is expressed as that concentration of the compound which causes a 50% reduction of the contractile response (IC50).

Where [3] appears, read: from rat peritoneal mast cells, sheep anti-rat IgE or ovalbumin, 60 min at 37° C.
The mark [4] stands for this setting: from human basophils, rabbit anti-human IgE as antigen, 60 min at 37° C., > = no response detected at highest dose indicated.
Where [5] appears, read: from guinea pig basophils (ovalbumin-sensitized), 60 min at 37° C., > = no response detected at highest dose indicated.

T1 sequence (P31389 whole entry): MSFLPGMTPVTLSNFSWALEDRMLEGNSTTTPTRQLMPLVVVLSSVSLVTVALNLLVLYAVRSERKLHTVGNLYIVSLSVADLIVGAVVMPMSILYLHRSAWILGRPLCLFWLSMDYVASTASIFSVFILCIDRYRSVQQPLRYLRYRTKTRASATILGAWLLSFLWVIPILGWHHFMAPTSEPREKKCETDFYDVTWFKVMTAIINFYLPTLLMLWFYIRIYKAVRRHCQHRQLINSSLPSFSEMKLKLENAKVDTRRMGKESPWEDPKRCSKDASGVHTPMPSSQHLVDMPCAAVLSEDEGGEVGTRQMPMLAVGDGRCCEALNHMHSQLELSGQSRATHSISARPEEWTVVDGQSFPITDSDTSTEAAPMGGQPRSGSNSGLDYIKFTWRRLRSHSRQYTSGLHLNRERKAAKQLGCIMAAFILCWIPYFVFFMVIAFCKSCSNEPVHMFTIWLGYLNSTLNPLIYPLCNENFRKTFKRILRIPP

In the case of `O=C(Nc1ccccc1)SCCCN1CCN(Cc2ccc(Cl)cc2)CC1` [Example 7, N-Phenyl-S-{3-[4-(4-chlorobenzyl)piperazin-1-yl]propyl}thiocarbamate dihydrochloride], the IC50 in assay [1] (setting [3]) worked out at 3 µM; in assay [2] (setting [4]), 2.6 µM; with guinea pig basophils (setting [5]), 13 µM.
Taken in the same sequence, the figures for `CCCCc1ccc(NC(=O)SCCCN2CCN(CCCc3ccc(Cl)cc3)CC2)cc1` [Example 33, N-(4-n-Butylphenyl)-S-{3-[4-[3-(4-chlorophenyl)propyl]piperazin-1-yl]propyl}thiocarbamate dihydrochloride] were 2 µM, 5 µM and 14 µM.
`SCCN1CCN(Cc2ccc(Cl)cc2)CC1` [Example 36, 2-[4-(4-Chlorobenzyl)piperazin-1-yl]ethanethiol dihydrochloride]: the IC50 was 5 µM in assay [1] (Rattus norvegicus), 3 µM in assay [2] (Homo sapiens) and more than 100 µM in the assay on guinea pig basophils.
Turning to `SCCCN1CCN(CCc2ccc(Cl)cc2)CC1` [Example 25, 3-[4-(4-Chlorophenethyl)piperazin-1-yl]propanethiol dihydrochloride], the IC50 amounted to 4 µM in assay [1] (setting [3]), 5 µM in assay [2] (setting [4]) and 5 µM with guinea pig basophils (setting [5]).
`O=C(NC1CCCCC1)SCCCN1CCN(Cc2ccc(Cl)cc2)CC1` [Example 6, N-Cyclohexyl-S-{3-[4-(4-chlorobenzyl)piperazin-1-yl]propyl}thiocarbamate dihydrochloride]: the IC50 in assay [1] (setting [3]) stood at 3 µM; in assay [2] (setting [4]) it was 5 µM; on histamine (H1) receptor, 0.06 µM; in the assay with guinea pig basophils (setting [5]), 20 µM.
For `COc1ccc(NC(=O)SCCCN2CCN(CCc3ccc(Cl)cc3)CC2)cc1` [Example 28, N-(4-Methoxyphenyl)-S-{3-[4-(4-chlorophenethyl)piperazin-1-yl]propyl}thiocarbamate dihydrochloride], the IC50 in assay [1] (setting [3]) is 7 µM; in assay [2] (setting [4]), 5 µM; on histamine (H1) receptor it was 0.12 µM and 0.09 µM; in the assay with guinea pig basophils (setting [5]), 40 µM.
